# Laboratory results as given in US20140205582A1, “MEGAKARYOCYTE PROGENITOR CELLS FOR PRODUCTION OF PLATELETS” (CELLERANT THERAPEUTICS, INC., priority 2011, published 2014).
# Entries after “also recorded” stand apart in the source; their conditions may differ.
# Tested on: human CD34+ cells
# Assay: Expansion of CD34+ cells into MKPs in serum-free culture
# Type: cell-based
# Conditions: 60 ng/ml IL-9 with TPO mimetic and IL-1, 8 days, 3 donors
# Source text: Isolation of human CD34^+ cells. G-CSF mobilized peripheral blood was harvested from healthy donors via leukapheresis (see, e.g., Kawamoto et al. (2009) Stem Cells 27:2857). CD34+ cells were positively selected using magnetic beads (Dynal, Lake Success, N.Y.) linked to anti-CD34 monoclonal antibody on an Isolex Device (Baxter, Deerfield, Ill.). […] Aliquots of 15-20×10^6 cells/ml were cryopreserved until use.
# Expansion of CD34^+ cells. CD34^+ cells from donors were thawed, pooled as indicated, and seeded at 5×10^5 cells/ml in serum-free X-vivo 15 medium (Lonza, Walkersville, Md.) supplemented with IX GlutaMAX (Invitrogen, Carlsbad, Calif.). Cytokines were added as follows. […] Cultures were incubated at 37° C. in a humidified atmosphere containing 5% carbon dioxide. Viable cells were counted daily and cell concentration was readjusted to about 5×10^5 cells/ml by the addition of fresh medium with cytokines.
# Analysis of MKPs. Cell surface marker expression was analyzed by flow cytometry using CD15b, CD33, CD34, CD41, CD42a, CD90, and CD184 antibodies. Prior to antibody staining, cells were washed with HBSS containing 2% BSA and blocked with rat and mouse IgG (SouthernBiotech, Birmingham, AL) for 10 minutes at 4° C. […]
substance,measurement,value
"IL-9: interleukin-9 cytokine, also known as megakaryoblast growth factor",effect on number of MKPs,increased the number of MKPs from all 3 donors; also recorded: increases the size of all populations
